Assay [1] has as its target hGYS1 enzyme (recombinant hGYS1/GN1 protein) (Homo sapiens (Human), UniProt P13807). Kind of assay: GYS1 coupled enzyme assay (PK/LDH). It is filed as biochemical. To be noted: hGYS1/GN1 50 nM, UDP-Glucose 0.8 mM, G6P 1 mM; geometric mean of at least 2 runs.
Assay [2] relates to hGYS1 enzyme / glycogen synthesis in HeLa cells. Kind of assay: GYS1 cell based assay (glycogen synthesis, Glucose-glo). On the set-up: species or system human. To be noted: Homo sapiens, HeLa, 24 h, 24 h incubation, 20 mM glucose, geometric mean of at least 2 runs. The method in brief: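 HeLa cells starved 24 h in medium containing only 1× Glutamax were plated onto compound in medium with 20 mM glucose (1% DMSO final) for 24 h, 37 °C, 5% CO2. Acid lysates were Tris-quenched, glucoamylase-digested (pH 5.3, 1 h, 37 °C) and read by Glucose-glo luminescence. IC50 came from Hill fits, as geometric mean of ≥2 runs.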

Assay [3] addresses hGYS2 enzyme (recombinant hGYS2/GN1 protein) (Homo sapiens (Human), UniProt P54840). Kind of assay: GYS2 coupled enzyme assay (PK/LDH). Type of assay: biochemical. To be noted: geometric mean of at least 2 assay runs on separate days, read-out: Avg_IC50. In a few lines: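 IC50 came from Hill fits of duplicate percent inhibition, based on control-normalized slopes of 340 nm NADH decline read each minute for 10 min. The reaction held recombinant hGYS2/GN1 (200 nM) with glycogen, UDP-glucose, G6P and PEP, plus PK/LDH coupling at pH 7.5 and 2.5% DMSO.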

SMILES strings stand for the structures.

Chain of hGYS2 enzyme (recombinant hGYS2/GN1 protein) (P54840 whole entry): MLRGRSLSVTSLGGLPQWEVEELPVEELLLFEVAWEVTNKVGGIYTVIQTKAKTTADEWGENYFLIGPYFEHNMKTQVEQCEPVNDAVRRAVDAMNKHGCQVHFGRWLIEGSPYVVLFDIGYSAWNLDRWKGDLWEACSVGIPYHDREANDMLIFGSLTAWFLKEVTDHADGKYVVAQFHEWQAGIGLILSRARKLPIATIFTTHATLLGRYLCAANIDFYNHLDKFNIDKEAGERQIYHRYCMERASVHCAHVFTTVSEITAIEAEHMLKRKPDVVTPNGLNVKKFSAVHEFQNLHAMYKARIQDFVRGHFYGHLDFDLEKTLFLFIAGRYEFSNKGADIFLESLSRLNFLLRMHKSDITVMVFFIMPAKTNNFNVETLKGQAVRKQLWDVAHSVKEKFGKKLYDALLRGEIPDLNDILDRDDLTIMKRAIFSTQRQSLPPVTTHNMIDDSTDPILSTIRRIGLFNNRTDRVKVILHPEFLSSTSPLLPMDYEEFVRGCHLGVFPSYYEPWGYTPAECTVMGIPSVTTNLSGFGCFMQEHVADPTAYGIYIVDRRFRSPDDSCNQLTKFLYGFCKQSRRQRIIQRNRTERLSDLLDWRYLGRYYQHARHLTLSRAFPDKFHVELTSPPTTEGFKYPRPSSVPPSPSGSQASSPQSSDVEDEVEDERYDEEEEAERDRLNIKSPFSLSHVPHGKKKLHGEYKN
Chain of hGYS2 enzyme (recombinant hGYS2/GN1 protein) (P46976 whole entry partner): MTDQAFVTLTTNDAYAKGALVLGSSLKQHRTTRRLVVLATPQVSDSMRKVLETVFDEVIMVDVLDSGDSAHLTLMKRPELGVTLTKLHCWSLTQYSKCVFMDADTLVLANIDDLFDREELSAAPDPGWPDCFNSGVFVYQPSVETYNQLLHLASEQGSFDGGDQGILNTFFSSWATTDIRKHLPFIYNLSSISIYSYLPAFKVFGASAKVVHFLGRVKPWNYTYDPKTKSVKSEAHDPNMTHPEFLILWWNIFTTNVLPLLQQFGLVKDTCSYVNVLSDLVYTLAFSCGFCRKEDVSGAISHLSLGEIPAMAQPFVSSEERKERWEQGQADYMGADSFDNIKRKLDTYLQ
Chain of hGYS1 enzyme (recombinant hGYS1/GN1 protein) (P13807 whole entry): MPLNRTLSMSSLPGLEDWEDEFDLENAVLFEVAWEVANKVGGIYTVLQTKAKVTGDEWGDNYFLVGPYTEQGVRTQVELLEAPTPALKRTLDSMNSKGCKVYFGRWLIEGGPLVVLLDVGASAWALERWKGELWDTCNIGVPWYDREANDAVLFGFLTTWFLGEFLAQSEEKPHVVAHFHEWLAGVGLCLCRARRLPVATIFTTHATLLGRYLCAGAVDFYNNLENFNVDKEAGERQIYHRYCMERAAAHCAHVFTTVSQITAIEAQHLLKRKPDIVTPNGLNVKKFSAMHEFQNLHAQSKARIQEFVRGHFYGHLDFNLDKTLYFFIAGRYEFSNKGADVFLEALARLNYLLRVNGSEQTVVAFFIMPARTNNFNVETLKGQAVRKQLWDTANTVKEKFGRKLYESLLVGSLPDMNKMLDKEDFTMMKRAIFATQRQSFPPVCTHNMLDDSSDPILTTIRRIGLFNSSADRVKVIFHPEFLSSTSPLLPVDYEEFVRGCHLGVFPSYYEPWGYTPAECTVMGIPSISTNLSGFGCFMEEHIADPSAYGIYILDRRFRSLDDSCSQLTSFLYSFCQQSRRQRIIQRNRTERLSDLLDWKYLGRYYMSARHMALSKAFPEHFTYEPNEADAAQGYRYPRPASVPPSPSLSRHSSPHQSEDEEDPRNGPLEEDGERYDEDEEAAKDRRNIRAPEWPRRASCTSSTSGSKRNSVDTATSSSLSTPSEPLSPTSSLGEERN
Chain of hGYS1 enzyme (recombinant hGYS1/GN1 protein) (P46976 whole entry partner): as the sequence (P46976 whole entry partner) above

In the case of `O=C(N[C@@H](c1ccccc1)c1ccc(C2CC(F)(F)C2)c(F)c1)[C@@H]1C[C@@H](F)CN1C(=O)Cc1[nH]nnc1C(F)(F)F` [Compound 553, (2S,4R)-N-[(S)-[4-(3,3-difluorocyclobutyl)-3-fluorophenyl](phenyl)methyl]-4-fluoro-1-{2-[4-(trifluoromethyl)-1H-1,2,3-triazol-5-yl]acetyl}pyrrolidine-2-carboxamide], the IC50 in assay [1] is 8 nM; in assay [2], 400 nM; in assay [3], greater than 100000 nM.
On to `Cc1coc(CC(=O)N2C[C@H](F)C[C@H]2C(=O)N[C@@H](c2ccccc2)c2ccc(C3CC(F)(F)C3)c(F)c2)n1` [Compound 554, (2S,4R)-N-[(S)-[4-(3,3-difluorocyclobutyl)-3-fluorophenyl](phenyl)methyl]-4-fluoro-1-[2-(4-methyl-1,3-oxazol-2-yl)acetyl]pyrrolidine-2-carboxamide], for which the IC50 in assay [1] is 34 nM; in assay [2] it was 380 nM; in assay [3], greater than 100000 nM.
In the same order, the values of `Cc1cn(CC(=O)N2C[C@H](F)C[C@H]2C(=O)N[C@@H](c2ccccc2)c2ccc(C3(C)CC3)c(F)c2)c(=O)[nH]c1=O` [Compound 556, (2S,4R)-4-fluoro-N—((S)-(3-fluoro-4-(1-methylcyclopropyl)phenyl)(phenyl)methyl)-1-(2-(5-methyl-2,4-dioxo-3,4-dihydropyrimidin-1(2H)-yl)acetyl)pyrrolidine-2-carboxamide] are 27 nM, 760 nM and greater than 100000 nM.
On to `CC1(c2ccc([C@@H](NC(=O)[C@@H]3C[C@@H](F)CN3C(=O)Cc3cnn[nH]3)c3ccccc3)cc2F)CC1` [Compound 558, (2S,4R)-4-fluoro-N-[(S)-[3-fluoro-4-(1-methylcyclopropyl)phenyl](phenyl)methyl]-1-[2-(1H-1,2,3-triazol-5-yl)acetyl]pyrrolidine-2-carboxamide], for which the IC50 was 136 nM in assay [1], 2460 nM in assay [2] and greater than 100000 nM in assay [3].
Consider `CC1(c2ccc([C@@H](NC(=O)[C@@H]3C[C@@H](F)CN3C(=O)COC(=O)N3CCC3)c3ccccc3)cc2F)CC1` [Compound 560, 2-[(2S,4R)-4-fluoro-2-{[(S)-[3-fluoro-4-(1-methylcyclopropyl)phenyl](phenyl)methyl]carbamoyl}pyrrolidin-1-yl]-2-oxoethyl azetidine-1-carboxylate], for which the IC50 was 144 nM in assay [1], 1800 nM in assay [2] and greater than 100000 nM in assay [3].
In the same order, the values of `Cn1c(CC(=O)N2C[C@H](F)C[C@H]2C(=O)N[C@@H](c2ccccc2)c2ccc(C3(C)CC3)c(F)c2)cc2ccccc21` [Compound 561, (2S,4R)-4-fluoro-N-[(S)-[3-fluoro-4-(1-methylcyclopropyl)phenyl](phenyl)methyl]-1-[2-(1-methyl-1H-indol-2-yl)acetyl]pyrrolidine-2-carboxamide] are 36 nM, 870 nM and greater than 100000 nM.
In the same order, the values of `CC1(c2ccc([C@@H](NC(=O)[C@@H]3C[C@@H](F)CN3C(=O)CN3CCNCC3=O)c3ccccc3)cc2F)CC1` [Compound 562, (2S,4R)-4-fluoro-N-[(S)-[3-fluoro-4-(1-methylcyclopropyl)phenyl](phenyl)methyl]-1-[2-(2-oxopiperazin-1-yl)acetyl]pyrrolidine-2-carboxamide] are 685 nM, 7070 nM and greater than 100000 nM.
Regarding `Cn1cc(CC(=O)N2C[C@H](F)C[C@H]2C(=O)N[C@@H](c2ccccc2)c2ccc(C3(C)CC3)c(F)c2)c2ccccc21` [Compound 563, (2S,4R)-4-fluoro-N-[(S)-[3-fluoro-4-(1-methylcyclopropyl)phenyl](phenyl)methyl]-1-[2-(1-methyl-1H-indol-3-yl)acetyl]pyrrolidine-2-carboxamide], the IC50 in assay [1] is 63 nM; in assay [2], 780 nM; in assay [3] it was greater than 100000 nM.
With `Cn1nc(CC(=O)N2C[C@H](F)C[C@H]2C(=O)N[C@@H](c2ccccc2)c2ccc(C3(C)CC3)c(F)c2)c2ccccc21` [Compound 564, (2S,4R)-4-fluoro-N-[(S)-[3-fluoro-4-(1-methylcyclopropyl)phenyl](phenyl)methyl]-1-[2-(1-methyl-1H-indazol-3-yl)acetyl]pyrrolidine-2-carboxamide], the IC50 in assay [1] is 56 nM; in assay [2] it was 790 nM; in assay [3] it was greater than 100000 nM.
For `CC1(c2ccc([C@@H](NC(=O)[C@@H]3C[C@@H](F)CN3C(=O)CNC(=O)N3CCOCC3)c3ccccc3)cc2F)CC1` [Compound 565, N-{2-[(2S,4R)-4-fluoro-2-{[(S)-[3-fluoro-4-(1-methylcyclopropyl)phenyl](phenyl)methyl]carbamoyl}pyrrolidin-1-yl]-2-oxoethyl}morpholine-4-carboxamide], the IC50 in assay [1] was 48 nM; in assay [2], 1210 nM; in assay [3], greater than 100000 nM.
The matching figures for `Cc1nc2ccccc2n1CC(=O)N1C[C@H](F)C[C@H]1C(=O)N[C@@H](c1ccccc1)c1ccc(C2(C)CC2)c(F)c1` [Compound 566, (2S,4R)-4-fluoro-N-[(S)-[3-fluoro-4-(1-methylcyclopropyl)phenyl](phenyl)methyl]-1-[2-(2-methyl-1H-1,3-benzodiazol-1-yl)acetyl]pyrrolidine-2-carboxamide]: 46 nM, 770 nM and greater than 100000 nM.
Consider `Cn1c(=O)n(CC(=O)N2C[C@H](F)C[C@H]2C(=O)N[C@@H](c2ccccc2)c2ccc(C3(C)CC3)c(F)c2)c2ccccc21` [Compound 568, (2S,4R)-4-fluoro-N-[(S)-[3-fluoro-4-(1-methylcyclopropyl)phenyl](phenyl)methyl]-1-[2-(3-methyl-2-oxo-2,3-dihydro-1H-1,3-benzodiazol-1-yl)acetyl]pyrrolidine-2-carboxamide], for which the IC50 turned out to be 89 nM in assay [1], 960 nM in assay [2] and 94200 nM in assay [3].
For `Cn1c(=O)ccn(CC(=O)N2C[C@H](F)C[C@H]2C(=O)N[C@@H](c2ccccc2)c2ccc(C3(C)CC3)c(F)c2)c1=O` [Compound 569, (2S,4R)-4-fluoro-N-[(S)-[3-fluoro-4-(1-methylcyclopropyl)phenyl](phenyl)methyl]-1-[2-(3-methyl-2,4-dioxo-1,2,3,4-tetrahydropyrimidin-1-yl)acetyl]pyrrolidine-2-carboxamide], the values for the IC50 in assay [1], in assay [2] and in assay [3] were 66 nM, 960 nM and greater than 100000 nM, respectively.
Regarding `CC1(c2ccc([C@@H](NC(=O)[C@@H]3C[C@@H](F)CN3C(=O)Cn3c(=O)[nH]c4ccccc43)c3ccccc3)cc2F)CC1` [Compound 570, (2S,4R)-4-fluoro-N-[(S)-[3-fluoro-4-(1-methylcyclopropyl)phenyl](phenyl)methyl]-1-[2-(2-oxo-2,3-dihydro-1H-1,3-benzodiazol-1-yl)acetyl]pyrrolidine-2-carboxamide], the IC50 in assay [1] was 82 nM; in assay [2], 1220 nM; in assay [3], greater than 100000 nM.
Regarding `CC1(c2ccc([C@@H](NC(=O)[C@@H]3C[C@@H](F)CN3C(=O)Cc3n[nH]c4ccccc34)c3ccccc3)cc2F)CC1` [Compound 571, (2S,4R)-4-fluoro-N-[(S)-[3-fluoro-4-(1-methylcyclopropyl)phenyl](phenyl)methyl]-1-[2-(1H-indazol-3-yl)acetyl]pyrrolidine-2-carboxamide], the results for the IC50 in assay [1], in assay [2] and in assay [3] were 75 nM, 930 nM and greater than 100000 nM, respectively.
Take `CC1(c2ccc([C@@H](NC(=O)[C@@H]3C[C@@H](F)CN3C(=O)CN3CC(=O)NCC3=O)c3ccccc3)cc2F)CC1` [Compound 572, (2S,4R)-1-[2-(2,5-dioxopiperazin-1-yl)acetyl]-4-fluoro-N-[(S)-[3-fluoro-4-(1-methylcyclopropyl)phenyl](phenyl)methyl]pyrrolidine-2-carboxamide]: the IC50 in assay [1] is 205 nM; in assay [2], 3600 nM; in assay [3], greater than 100000 nM.
On to `CC1(c2ccc([C@@H](NC(=O)[C@@H]3C[C@@H](F)CN3C(=O)CN3Cc4ccccc4C3=O)c3ccccc3)cc2F)CC1` [Compound 573, (2S,4R)-4-fluoro-N-[(S)-[3-fluoro-4-(1-methylcyclopropyl)phenyl](phenyl)methyl]-1-[2-(1-oxo-2,3-dihydro-1H-isoindol-2-yl)acetyl]pyrrolidine-2-carboxamide], for which the results for the IC50 in assay [1], in assay [2] and in assay [3] were 178 nM, 1660 nM and greater than 100000 nM, respectively.
In the case of `CC1(c2ccc([C@@H](NC(=O)[C@@H]3C[C@@H](F)CN3C(=O)Cn3nnc4ccccc43)c3ccccc3)cc2F)CC1` [Compound 575, (2S,4R)-1-[2-(1H-1,2,3-benzotriazol-1-yl)acetyl]-4-fluoro-N-[(S)-[3-fluoro-4-(1-methylcyclopropyl)phenyl](phenyl)methyl]pyrrolidine-2-carboxamide], the IC50 in assay [1] is 119 nM; in assay [2] it was 2090 nM; in assay [3], greater than 100000 nM.
In the same order, the values of `CC1(c2ccc([C@@H](NC(=O)[C@@H]3C[C@@H](F)CN3C(=O)CN3C(=O)Cc4ccccc43)c3ccccc3)cc2F)CC1` [Compound 576, (2S,4R)-4-fluoro-N-[(S)-[3-fluoro-4-(1-methylcyclopropyl)phenyl](phenyl)methyl]-1-[2-(2-oxo-2,3-dihydro-1H-indol-1-yl)acetyl]pyrrolidine-2-carboxamide] are 85 nM, 1800 nM and greater than 100000 nM.
